Results: patent US12383534B2, “Methods for treating cancer” (REGENTS OF THE UNIVERSITY OF MINNESOTA, priority 2021, dated 2025)

Legend:
CDS cell lines = details: screens of FDA-approved anticancer molecules; cited from earlier work
Kitra-SRS cells (IGF-1R) = details: cited from earlier work
p300 and CBP = details: in vitro and in vivo; cited from earlier work
[1] = system: CIC-DUX4 target genes ETV1, 4, and 5; experiment: RT-qPCR for CIC-DUX4 target genes in NCC-CDS-X1 cells; format: cell-based, human; details: NCC-CDS-X1, 24 hours, highest concentration
Experimental: RNA was extracted using an RNA extraction kit (Zymo) and cDNA was made using 0.5 μg total RNA with oligo-dT primer and Verso cDNA Synthesis Kit (Thermo Scientific) following the manufacturer's instructions. qPCRs were performed by using Premix Ex Taq (Probe qPCR, Takara) or SYBR-green. Gene expression levels were normalized to that of GAPDH and analyzed with 7500 System Software using the ACT method (Applied Biosystems). RNA-seq library preparation was done with 500 ng total RNA from NCC-CDS-X1 cells treated for 4 or 24 hours with iP300w (0.3 μM) using the Swift Rapid RNA Library Kit (SwiftBioscience). 36 base paired-end sequencing was performed on an Illumina NextSeq instrument at the University of Minnesota Genomics Center.
Next, the effect of the stereoisomers on the CIC-DUX4 target genes in cells cultured with the compounds for 24 hours was analyzed.

[2] = system: wide spectrum of cancer cell lines; details: cited from earlier work
[3] = system: NCC-CDS-X1 cells (CIC-DUX4 sarcoma cell line); experiment: Cell viability (ATP) assay in NCC-CDS-X1 cells; format: cell-based, human
Experimental: Basal media were purchased from HyClone, fetal bovine serum (FBS) was from PeakSerum (Ps-FB3, lot 293Q16), and Glutamax (Glu) and Penicillin/Streptomycin (P/S) were from GIBCO. NCC-CDS-X1 (CIC-DUX4 sarcoma cell line, a generous gift from Tadashi Kondo) cell line was cultured in RPMI with 10% FBS, Glu and P/S, Kitra-SRS (CIC-DUX4 sarcoma cell line, a generous gift from Hidetatsu Otani), 3T3, 293T and C2C12 cell lines were cultured in DMEM/10% FBS/Glu/P/S. The immortalized human myoblast LHCN-M2 cell line was cultured in proliferation medium: F10 supplemented with 20% FBS, 2-mercaptoethanol 1× (GIBCO), 10^−9 M dexamethasone (Sigma), 10 ng/mL bFGF (Peprotech), and Glu/P/S. All cells were cultured at 37° C. in a 5% CO2 atmosphere.
Cell lines were plated in a 96 well dish (1×10^5 cells/well), and the following day were treated with iP300w or its stereoisomers. ATP assays were performed using CellTiter-Glo® Luminescent Cell Viability Assay (Promega) according to the manufacturer's instructions. Luminescence was analyzed on POLARstar Optima Microplate Reader (BMG Labtech, Offenburg, Germany).
The activity of the various iP300w stereoisomers against NCC-CDS-X1 cells was evaluated. Cultures were treated with serial dilutions, ranging from 0.003 μM to 3.0 μM, for up to 96 hours. In cells treated with iP300w, a significant decrease in cell viability was evident at the lowest concentration (0.003 μM) at 48 and 96 hours (FIG. 3A). The effect was dose- and time-dependent. […] (FIG. 2B and FIG. 9).

## CC(C)C[C@H](NC(=O)[C@H](Cc1ccccc1)NC(=O)c1cnccn1)B(O)O [bortezomib]
CDS cell lines
  effectiveness in vitro on CDS cell lines: some degree of effectiveness in vitro

## C[C@@H](Oc1cc(-c2cnn(C3CCNCC3)c2)cnc1N)c1c(Cl)ccc(F)c1Cl [crizotinib]
CDS cell lines
  effectiveness in vitro on CDS cell lines: some degree of effectiveness in vitro

## C[C@]1(O)C[C@@H](c2nc(-c3ccc4ccc(-c5ccccc5)nc4c3)c3c(N)nccn32)C1 [linsitinib]
Kitra-SRS cells (IGF-1R)
  effect on cell proliferation: reduced cell proliferation

## CNC(=O)Nc1ccc2c(c1)CC[C@@]21OC(=O)N(CC(=O)N(Cc2ccc(F)cc2)[C@@H](C)C(F)(F)F)C1=O [A-485, reference compound]
p300 and CBP
  inhibition of acetylation by p300 and CBP: inhibit acetylation by p300 and CBP both in vitro and in vivo
[1]
  effect on ETV4 expression at the highest concentration: notable effect on ETV4
[2]; high MITF-expressing melanoma cell lines and NUT midline carcinoma
  efficacy against melanoma and NUT midline carcinoma: effective against high MITF-expressing melanoma cell lines
[2]; more prominently in those of hematopoietic origin
  effect on proliferation of cancer cell lines: suppress proliferation of a wide spectrum of cancer cell lines
[3]; NCC-CDS-X1, IC50 at 48 and 96 hours
  fold less potent than iP300w (from IC50 values): approximately 200 fold
[3]; NCC-CDS-X1, up to 96 hours, 0.003 to 3.0 μM
  activity on cell viability: also showed activity, but at higher concentrations
